Measurements published in ChEMBL document CHEMBL4419121, “Tetrahydropyridopyrazines modulators of gpr6” (2018).

Biological target: T1, G-protein coupled receptor 6 (Homo sapiens, UniProt P46095)
Assay: Modulation activity at GPR6 receptor (unknown origin) expressed in CHO-K1 cells assessed as inhibition of constitutive cAMP activity incubated for 45 mins by Perkin Elmer Lance HTRF Ultrac-AMP assay
Assay type: functional, cell-based
Settings: not given

T1 sequence (P46095 whole entry): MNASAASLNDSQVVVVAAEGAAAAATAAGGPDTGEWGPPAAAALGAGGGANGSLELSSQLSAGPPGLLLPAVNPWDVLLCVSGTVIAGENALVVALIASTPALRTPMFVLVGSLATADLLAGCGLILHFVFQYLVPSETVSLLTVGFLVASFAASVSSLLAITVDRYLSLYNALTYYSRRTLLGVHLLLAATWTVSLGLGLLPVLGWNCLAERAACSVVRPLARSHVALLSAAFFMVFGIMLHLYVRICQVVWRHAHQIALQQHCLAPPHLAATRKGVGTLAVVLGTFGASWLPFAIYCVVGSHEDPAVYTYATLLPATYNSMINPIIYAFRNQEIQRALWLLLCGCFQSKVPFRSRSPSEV

SMILES	IC50 [nM]
CC1c2nc(N3CCC(Oc4ccc(F)cc4F)CC3)c(NCC(F)F)nc2CCN1C(=O)C1CC1 (configuration not stated)	126
CN1CCc2nc(NC3CC3)c(N3CCC(C(F)c4ccc(F)cc4F)CC3)nc2C1 (configuration not stated)	9.4
CC(C)Nc1nc2c(nc1N1CCC(Oc3ccc(F)cc3F)CC1)C(C)N(S(C)(=O)=O)CC2 (configuration not stated)	98
CS(=O)(=O)N1CCc2nc(N3CCC(Oc4ccc(F)cc4F)CC3)c(NCC(F)F)nc2C1	57.2
COCCNC(=O)N1CCc2nc(NC(C)C)c(N3CCC(Oc4ccc(F)cc4F)CC3)nc2C1	14.9
CN(C)C(=O)N1CCc2nc(NCC(F)F)c(N3CCC(Oc4ccc(F)cc4F)CC3)nc2C1	9.1
COc1ccc(OC2CCN(c3nc4c(nc3NC(C)C)CCN(C)C4)CC2)c(F)c1	26.6
CC1Cc2nc(NCC(F)F)c(N3CCC(Oc4ccc(F)cc4F)CC3)nc2CN1S(C)(=O)=O (configuration not stated)	10.4
COc1ccc(OC2CCN(c3nc4c(nc3NC3CC3)CCN(C)C4)CC2)c(F)c1	145
COc1ccc(OC2CCN(c3nc4c(nc3NC3CCC3)CN(C(=O)N(C)C)CC4)CC2)c(F)c1	32.5
CC(C)Nc1nc2c(nc1N1CCC(Oc3ccc(F)cc3F)CC1)CCN(C(=O)C1CCCO1)C2 (configuration not stated)	17.9
CC(=O)N1CCc2nc(N3CCC(Oc4ccc(F)cc4F)CC3)c(NCC(F)F)nc2C1C (configuration not stated)	178
CC(C)Nc1nc2c(nc1N1CCC(C(=O)c3cc(Cl)ccc3F)CC1)CN(C(=O)N(C)C)CC2	24.9
CO[C@@H](C)C(=O)N1Cc2nc(N3CCC(Oc4ccc(F)cc4F)CC3)c(NCC(F)F)nc2CC1C (some centres not stated)	20.9
COc1ccc(OC2CCN(c3nc4c(nc3NC(C)C)CCN(C(=O)N(C)C)C4)CC2)c(F)c1	16.6
CC(=O)N1CCc2nc(N3CCC(C(F)c4ccc(F)cc4F)CC3)c(NC(C)C)nc2C1 (configuration not stated)	13.4
COc1ccc(OC2CCN(c3nc4c(nc3NC3CCC3)CN(C(C)=O)CC4)CC2)c(F)c1	19.9
CC(C)Nc1nc2c(nc1N1CCC(Oc3ccc(F)cc3F)CC1)CCN(C(=O)N1CCCC1)C2	391
CC(=O)N1CCc2nc(NCC(F)F)c(N3CCC(Oc4ccc(F)cc4F)CC3)nc2C1	11.5
COc1ccc(OC2CCN(c3nc4c(nc3NC3CCC3)CCN(C(C)=O)C4)CC2)c(F)c1	12
CC(C)Nc1nc2c(nc1N1CCC(Oc3ccc(F)cc3F)CC1)CN(C(=O)CC#N)CC2	18
CC(C)Nc1nc2c(nc1N1CCC(C(=O)c3cc(Cl)ccc3F)CC1)CN(C)CC2	8.8

SMILES	IC50 [nM]
CC(=O)N1CCc2nc(NC(C)C)c(N3CCC(Oc4ccc(F)cc4F)CC3)nc2C1	9.5
CO[C@@H](C)C(=O)N1CCc2nc(NCC(F)F)c(N3CCC(Oc4ccc(F)cc4F)CC3)nc2C1	8.3
CC(=O)N1CCc2nc(NC(C)C)c(N3CCC(Oc4ccc(F)cc4F)CC3)nc2C1C (configuration not stated)	88
CC1c2nc(NCC(F)F)c(N3CCC(Oc4ccc(F)cc4F)CC3)nc2CCN1S(C)(=O)=O (configuration not stated)	87
CC(C)Nc1nc2c(nc1N1CCC(Oc3ccc(F)cc3F)CC1)CCN(C(=O)c1ccno1)C2	38.7
COc1ccc(OC2CCN(c3nc4c(nc3NC(C)C)CN(C(=O)N(C)C)CC4)CC2)c(F)c1	35
CC1Cc2nc(NCC(F)F)c(N3CCC(Oc4ccc(F)cc4F)CC3)nc2CN1C(=O)N(C)C (configuration not stated)	31.4
CN(C)C(=O)N1CCc2nc(N3CCC(Oc4ccc(F)cc4F)CC3)c(NCC(F)F)nc2C1	26.9
COCCNC(=O)N1CCc2nc(N3CCC(Oc4ccc(F)cc4F)CC3)c(NC(C)C)nc2C1	29.8
CC(=O)N1CCc2nc(NCC(F)F)c(N3CCC(Oc4ccc(F)cc4F)CC3)nc2C1C (configuration not stated)	76
CC(C)Nc1nc2c(nc1N1CCC(C(F)c3ccc(F)cc3F)CC1)CN(C(=O)N(C)C)CC2 (configuration not stated)	23.7
CC(C)Nc1nc2c(nc1N1CCC(Oc3ccc(F)cc3F)CC1)C(C)N(C(=O)C1CC1)CC2 (configuration not stated)	259
CC1Cc2nc(NCC(F)F)c(N3CCC(Oc4ccc(F)cc4F)CC3)nc2CN1C(=O)C(F)F (configuration not stated)	22.1
O=C(C(F)F)N1CCc2nc(N3CCC(Oc4ccc(F)cc4F)CC3)c(NCC(F)F)nc2C1	78.8
CO[C@H](C)C(=O)N1CCc2nc(N3CCC(Oc4ccc(F)cc4F)CC3)c(NCC(F)F)nc2C1	64
CC(C)Nc1nc2c(nc1N1CCC(C(F)c3ccc(F)cc3F)CC1)CCN(C(=O)N(C)C)C2 (configuration not stated)	19.7
COCC(=O)N1Cc2nc(N3CCC(Oc4ccc(F)cc4F)CC3)c(NCC(F)F)nc2CC1C (configuration not stated)	23
CC(C)Nc1nc2c(nc1N1CCC(Oc3ccc(F)cc3F)CC1)CCN(C(=O)N(C)C)C2	10.4
COc1ccc(OC2CCN(c3nc4c(nc3NC3CCC3)CCN(C(=O)N(C)C)C4)CC2)c(F)c1	13.8
CC(C)Nc1nc2c(nc1N1CCC(Oc3ccc(F)cc3F)CC1)CCN(S(=O)(=O)C(C)C)C2	149
CO[C@H](C)C(=O)N1Cc2nc(N3CCC(Oc4ccc(F)cc4F)CC3)c(NCC(F)F)nc2CC1C (some centres not stated)	18.5
CC1Cc2nc(NCC(F)F)c(N3CCC(Oc4ccc(F)cc4F)CC3)nc2CN1C (configuration not stated)	23.2

Tested on: Rattus norvegicus
Assay: Reversal of haloperidol-induced catalepsy in Sprague-Dawley rat model of Parkinson's disease assessed as reduction in catalepsy intensity index at 0.1 mg/kg, ip dosed along with haloperidol and measured after 30 mins relative to untreated control
Assay type: functional
Set-up: scale not given: the % may be the effect or the level left
Settings: not given

SMILES	Activity [%]
CC(=O)N1CCc2nc(N3CCC(Oc4ccc(F)cc4F)CC3)c(NC(C)C)nc2C1	-5.7

Biological target: T1, G-protein coupled receptor 6
Assay: Modulation activity at GPR6 receptor (unknown origin) expressed in CHO-K1 cells assessed as inhibition of constitutive cAMP activity incubated for 45 mins in presence of 300 uM IBMX by Perkin Elmer Lance HTRF Ultrac-AMP assay
Assay type: functional, cell-based
Settings: cho-k1

SMILES	IC50 [nM]
CC(=O)N1CCc2nc(NC(C)C)c(N3CCC(Oc4ccc(F)cc4F)CC3)nc2C1	73.7
CC(=O)N1CCc2nc(N3CCC(Oc4ccc(F)cc4F)CC3)c(NC(C)C)nc2C1	24.6
